BigSolDB 2.1

## c1ccc2ccccc2c1
In DMF, 278.05 K
  solubility (mole fraction): 0.162
In DMF, 283.05 K
  solubility (mole fraction): 0.185
In DMF, 288.15 K
  solubility (mole fraction): 0.215
In DMF, 292.75 K
  solubility (mole fraction): 0.244
In DMF, 298.05 K
  solubility (mole fraction): 0.281
In DMF, 303.25 K
  solubility (mole fraction): 0.307
In DMF, 307.95 K
  solubility (mole fraction): 0.354
In DMF, 313.15 K
  solubility (mole fraction): 0.406
In DMF, 318.15 K
  solubility (mole fraction): 0.465
In NMP, 278.18 K
  solubility (mole fraction): 0.269
In NMP, 283.25 K
  solubility (mole fraction): 0.289
In NMP, 288.17 K
  solubility (mole fraction): 0.307
In NMP, 293.2 K
  solubility (mole fraction): 0.336
In NMP, 298.16 K
  solubility (mole fraction): 0.379
In NMP, 303.21 K
  solubility (mole fraction): 0.41
In NMP, 308.17 K
  solubility (mole fraction): 0.438
In NMP, 313.16 K
  solubility (mole fraction): 0.486
In NMP, 318.21 K
  solubility (mole fraction): 0.535
In NMP, 323.27 K
  solubility (mole fraction): 0.577
In THF, 278.6 K
  solubility (mole fraction): 0.241
In THF, 284.35 K
  solubility (mole fraction): 0.273
In THF, 288.25 K
  solubility (mole fraction): 0.292
In THF, 293.25 K
  solubility (mole fraction): 0.324
In THF, 298 K
  solubility (mole fraction): 0.352
In THF, 303.2 K
  solubility (mole fraction): 0.385
In THF, 308.19 K
  solubility (mole fraction): 0.428
In THF, 313.25 K
  solubility (mole fraction): 0.469
In THF, 318.35 K
  solubility (mole fraction): 0.51
In THF, 323.2 K
  solubility (mole fraction): 0.566
In THF, 328.21 K
  solubility (mole fraction): 0.6
In THF, 333.22 K
  solubility (mole fraction): 0.629
In acetone, 278.15 K
  solubility (mole fraction): 0.124
In acetone, 283.15 K
  solubility (mole fraction): 0.143
In acetone, 288.05 K
  solubility (mole fraction): 0.171
In acetone, 293.25 K
  solubility (mole fraction): 0.194
In acetone, 298.35 K
  solubility (mole fraction): 0.226
In acetone, 303 K
  solubility (mole fraction): 0.268
In acetone, 308.1 K
  solubility (mole fraction): 0.307
In acetone, 313.05 K
  solubility (mole fraction): 0.361
In acetone, 318.15 K
  solubility (mole fraction): 0.417
In acetone, 323.05 K
  solubility (mole fraction): 0.477
In ethyl acetate, 278.2 K
  solubility (mole fraction): 0.174
In ethyl acetate, 283.17 K
  solubility (mole fraction): 0.191
In ethyl acetate, 288.21 K
  solubility (mole fraction): 0.217
In ethyl acetate, 293.19 K
  solubility (mole fraction): 0.233
In ethyl acetate, 298.25 K
  solubility (mole fraction): 0.276
In ethyl acetate, 303.2 K
  solubility (mole fraction): 0.314
In ethyl acetate, 308.21 K
  solubility (mole fraction): 0.357
In ethyl acetate, 313.23 K
  solubility (mole fraction): 0.406
In ethyl acetate, 318.17 K
  solubility (mole fraction): 0.465
In ethyl acetate, 323.21 K
  solubility (mole fraction): 0.526
In isobutyl acetate, 278.18 K
  solubility (mole fraction): 0.183
In isobutyl acetate, 283.2 K
  solubility (mole fraction): 0.205
In isobutyl acetate, 288.22 K
  solubility (mole fraction): 0.232
In isobutyl acetate, 293.23 K
  solubility (mole fraction): 0.259
In isobutyl acetate, 298.19 K
  solubility (mole fraction): 0.299
In isobutyl acetate, 303.23 K
  solubility (mole fraction): 0.335
In isobutyl acetate, 308.45 K
  solubility (mole fraction): 0.387
In isobutyl acetate, 313.2 K
  solubility (mole fraction): 0.433
In isobutyl acetate, 318.17 K
  solubility (mole fraction): 0.483
In isobutyl acetate, 323.21 K
  solubility (mole fraction): 0.539
In n-butyric acid, 278.17 K
  solubility (mole fraction): 0.0834
In n-butyric acid, 283.27 K
  solubility (mole fraction): 0.0952
In n-butyric acid, 288.45 K
  solubility (mole fraction): 0.113
In n-butyric acid, 293.2 K
  solubility (mole fraction): 0.129
In n-butyric acid, 298.26 K
  solubility (mole fraction): 0.154
In n-butyric acid, 303.22 K
  solubility (mole fraction): 0.179
In n-butyric acid, 308.2 K
  solubility (mole fraction): 0.215
In n-butyric acid, 313.3 K
  solubility (mole fraction): 0.253
In n-butyric acid, 318.19 K
  solubility (mole fraction): 0.292
In n-butyric acid, 323.28 K
  solubility (mole fraction): 0.34
